Consider 19 compounds from US20260365653A1, “IRREVERSIBLE MUTEGFR INHIBITORS” (Bayer Aktiengesellschaft, priority 2022, published 2026).

pIC50: −log10 of the molar value.

Assay [1] concerns the target T1, mutEGFR (D770_N771insNPG, T790) (Homo sapiens, UniProt P00533, INS770NPG/T790M).
T1 construct: exact insNPG construct not described; in-house EGFR proteins were N-terminal GST fusions from baculovirus/insect cells (borders R669-A1210 given only for WT, insSVD, insASV)
Put plainly: mutEGFR (D770_N771insNPG, T790) kinase assay. Format: biochemical. The following applies: Table 2a, D770_N771insNPG. The text has this: The different EGFR proteins used in the biochemical kinase activity inhibition assays were generated inhouse by expression in insect cells using Baculo Virus system and subsequent purification as described in the following paragraphs.
The cDNAs encoding the various protein sequences from human EGFR human (P00533) were optimized for expression in eukaryotic cells and synthesized by the GeneArt Technology at Life Technologies.

The test system of the next assay is BA/F3 (insSVD) cells. Put plainly: Ba/F3-EGFR-insSVD cell survival assay (Cell Titer-Glo). Format: cell-based. The note with it: Mus musculus, BaF3, 48 h, Table 3a, cell survival, Cell Titer-Glo, with 10 ng/ml EGF, without IL-3. The essentials:
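CellTiter-Glo luminescence read after 48 h compound exposure at 37° C. Cells: IL-3-independent Ba/F3 lines transduced with EGFR-insSVD or EGFR-insSVD T790M, maintained on 10 ng/ml EGF and seeded at 4000 per well.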
Background: ATP-based viability assays read luminescence as a measure of living cells.

The target in assay [2] is T2, mutEGFR (D770_N771insSVD) (Homo sapiens, UniProt P00533, DUP768-770).
T2 construct: GST-EGFR #3 (SVD between D770 and N771); made in house; host or cells: Sf9 insect cells (baculovirus)
Put plainly: Exon20-Mutant-EGFR (D770_N771insSVD) kinase assay (TR-FRET). Format: biochemical. The note with it: mutEGFR (D770_N771insSVD) kinase assay IC50, Table 2a; D770_N771insSVD; 2 mM ATP. A general note: Time-resolved FRET reads energy transfer from a long-lived donor to a nearby acceptor.

T1 sequence (P00533 with tags, fused parts or gaps INS770NPG/T790M limits assumed): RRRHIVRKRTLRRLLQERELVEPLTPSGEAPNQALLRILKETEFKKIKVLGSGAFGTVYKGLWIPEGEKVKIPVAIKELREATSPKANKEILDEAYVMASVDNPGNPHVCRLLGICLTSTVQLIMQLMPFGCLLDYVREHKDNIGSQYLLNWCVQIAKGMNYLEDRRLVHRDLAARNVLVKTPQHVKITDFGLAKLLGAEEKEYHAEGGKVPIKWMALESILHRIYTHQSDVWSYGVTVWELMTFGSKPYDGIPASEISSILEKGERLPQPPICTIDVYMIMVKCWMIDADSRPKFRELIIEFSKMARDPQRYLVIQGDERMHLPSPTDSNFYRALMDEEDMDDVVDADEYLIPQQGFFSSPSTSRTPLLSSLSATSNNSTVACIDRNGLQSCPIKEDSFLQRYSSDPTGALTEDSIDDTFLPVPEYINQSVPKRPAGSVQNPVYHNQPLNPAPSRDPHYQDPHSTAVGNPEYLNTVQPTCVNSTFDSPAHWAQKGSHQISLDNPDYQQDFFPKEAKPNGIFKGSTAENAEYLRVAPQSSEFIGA
T2 sequence (P00533 with tags, fused parts or gaps DUP768-770): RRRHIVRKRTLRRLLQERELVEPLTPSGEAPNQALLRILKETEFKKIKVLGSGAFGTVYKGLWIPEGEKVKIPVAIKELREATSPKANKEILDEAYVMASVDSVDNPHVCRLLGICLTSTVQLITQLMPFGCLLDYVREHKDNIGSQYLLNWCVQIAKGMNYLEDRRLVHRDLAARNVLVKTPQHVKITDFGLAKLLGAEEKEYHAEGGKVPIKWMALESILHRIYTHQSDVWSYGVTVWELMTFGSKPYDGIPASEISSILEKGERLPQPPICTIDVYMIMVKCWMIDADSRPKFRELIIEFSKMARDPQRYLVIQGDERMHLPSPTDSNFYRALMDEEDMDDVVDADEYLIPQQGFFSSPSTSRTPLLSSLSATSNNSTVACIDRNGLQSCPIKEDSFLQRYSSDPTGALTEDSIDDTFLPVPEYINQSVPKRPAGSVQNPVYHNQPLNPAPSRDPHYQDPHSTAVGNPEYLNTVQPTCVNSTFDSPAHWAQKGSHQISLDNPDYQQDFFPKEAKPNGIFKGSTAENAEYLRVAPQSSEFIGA

By pIC50 is commonly meant −log10 of the IC50, conventionally taken in molar units. The low end stands for a high IC50, the high end for a low IC50. Regarding `COc1ccccc1-c1nn2c(c1-c1ccncc1)CN(C(=O)/C=C/CN(C)C)CC2` [Example 28, (2E)-4-(dimethylamino)-1-[2-(2-methoxyphenyl)-3-(pyridin-4-yl)-6,7-dihydropyrazolo[1,5-a]pyrazin-5(4H)-yl]but-2-en-1-one], the results for the pIC50 (in assay [1]; in the assay on BA/F3 (insSVD) cells; in assay [2]) were 7.45, 5.40 and 7.15, respectively.
For `CN(C)C/C=C/C(=O)N1CCn2nc(-c3ccc(Cl)c(Cl)c3)c(-c3ccncc3)c2C1` [Example 29, (2E)-1-[2-(3,4-dichlorophenyl)-3-(pyridin-4-yl)-6,7-dihydropyrazolo[1,5-a]pyrazin-5(4H)-yl]-4-(dimethylamino)but-2-en-1-one] the same measures were 8.81, 6.37 and 8.92.
As to `COc1ccc(-c2nn3c(c2-c2ccncc2)CN(C(=O)/C=C/CN(C)C)CC3)cc1` [Example 30, (2E)-4-(dimethylamino)-1-[2-(4-methoxyphenyl)-3-(pyridin-4-yl)-6,7-dihydropyrazolo[1,5-a]pyrazin-5(4H)-yl]but-2-en-1-one], the results for the pIC50 (in assay [1]; in the assay with BA/F3 (insSVD) cells; in assay [2]) were 7.63, 5.97 and 8.14, respectively.
For `COc1ccc(-c2nn3c(c2-c2ccncc2)CN(C(=O)/C=C/CN(C)C)CC3)cc1F` [Example 31, (2E)-4-(dimethylamino)-1-[2-(3-fluoro-4-methoxyphenyl)-3-(pyridin-4-yl)-6,7-dihydropyrazolo[1,5-a]pyrazin-5(4H)-yl]but-2-en-1-one] the same measures were 7.73, 6.06 and 8.39.
For `CCc1cc(-c2nn3c(c2-c2ccncc2)CN(C(=O)/C=C/CN(C)C)CC3)ccc1Cl` [Example 32, formic acid-(2E)-1-[2-(4-chloro-3-ethylphenyl)-3-(pyridin-4-yl)-6,7-dihydropyrazolo[1,5-a]pyrazin-5(4H)-yl]-4-(dimethylamino)but-2-en-1-one (1:1)] the same measures were 8.41, 5.97 and 8.88.
For `CN(C)C/C=C/C(=O)N1CCn2nc(-c3ccc(C#N)cc3)c(-c3ccncc3)c2C1` [Example 33, 4-{5-[(2E)-4-(dimethylamino)but-2-enoyl]-3-(pyridin-4-yl)-4,5,6,7-tetrahydropyrazolo[1,5-a]pyrazin-2-yl}benzonitrile] the same measures were 7.17, 5.74 and 8.08.
Regarding `CN(C)C/C=C/C(=O)N1CCn2nc(-c3ccc(C(F)(F)F)cc3)c(-c3ccncc3)c2C1` [Example 34, (2E)-4-(dimethylamino)-1-[3-(pyridin-4-yl)-2-[4-(trifluoromethyl)phenyl]-6,7-dihydropyrazolo[1,5-a]pyrazin-5(4H)-yl]but-2-en-1-one], the pIC50 in assay [1] was 8.36; in the assay on BA/F3 (insSVD) cells, 6.70; in assay [2] it was 8.86.
For the compound `CN(C)C/C=C/C(=O)N1CCn2nc(-c3ccc(Cl)cc3CO)c(-c3ccncc3)c2C1` [Example 35, (2E)-1-{2-[4-chloro-2-(hydroxymethyl)phenyl]-3-(pyridin-4-yl)-6,7-dihydropyrazolo[1,5-a]pyrazin-5(4H)-yl}-4-(dimethylamino)but-2-en-1-one], the pIC50 in assay [1] was 8.53; with BA/F3 (insSVD) cells, 6.10; in assay [2], 8.87.
For `C=CC(=O)N1CCn2nc(-c3ccc(OC)c(Cl)c3)c(-c3ccncc3)c2C1` [Example 38, 1-[2-(3-chloro-4-methoxyphenyl)-3-(pyridin-4-yl)-6,7-dihydropyrazolo[1,5-a]pyrazin-5(4H)-yl]prop-2-en-1-one] the same measures were 9.31, 7.49 and 9.26.
On the same counts, the results for `C=CC(=O)N1CCn2nc(-c3ccccc3OC)c(-c3ccncc3)c2C1` [Example 39, 1-[2-(2-methoxyphenyl)-3-(pyridin-4-yl)-6,7-dihydropyrazolo[1,5-a]pyrazin-5(4H)-yl]prop-2-en-1-one] are 7.74, 6.21 and 7.42.
Turning to `C=CC(=O)N1CCn2nc(-c3ccc(OC)cc3)c(-c3ccncc3)c2C1` [Example 41, 1-[2-(4-methoxyphenyl)-3-(pyridin-4-yl)-6,7-dihydropyrazolo[1,5-a]pyrazin-5(4H)-yl]prop-2-en-1-one], the pIC50 in assay [1] is 8.49; in the assay with BA/F3 (insSVD) cells, 7.43; in assay [2], 8.96.
As to `C=CC(=O)N1CCn2nc(-c3ccc(OC)c(F)c3)c(-c3ccncc3)c2C1` [Example 42, 1-[2-(3-fluoro-4-methoxyphenyl)-3-(pyridin-4-yl)-6,7-dihydropyrazolo[1,5-a]pyrazin-5(4H)-yl]prop-2-en-1-one], the pIC50 in assay [1] was 8.20; with BA/F3 (insSVD) cells, 7.27; in assay [2], 9.00.
For `C=CC(=O)N1CCn2nc(-c3ccc(C#N)cc3)c(-c3ccncc3)c2C1` [Example 43, 4-[5-acryloyl-3-(pyridin-4-yl)-4,5,6,7-tetrahydropyrazolo[1,5-a]pyrazin-2-yl]benzonitrile] the same measures were 7.73, 6.88 and 8.50.
On the same counts, the results for `C=CC(=O)N1CCn2nc(-c3ccc(C(F)(F)F)cc3)c(-c3ccncc3)c2C1` [Example 44, 1-[3-(pyridin-4-yl)-2-[4-(trifluoromethyl)phenyl]-6,7-dihydropyrazolo[1,5-a]pyrazin-5(4H)-yl]prop-2-en-1-one] are 8.55, 7.41 and 9.00.
Consider `C=CC(=O)N1CCn2nc(-c3cccc(C#N)c3)c(-c3ccnc4[nH]cc(C)c34)c2C1` [Example 45], for which the pIC50 in assay [1] is 6.80; in the assay with BA/F3 (insSVD) cells, 6.66; in assay [2], 6.01.
Take `C=CC(=O)N1CCn2nc(-c3ccc(OC)c(F)c3)c(-c3ccnc4[nH]cc(C)c34)c2C1` [Example 46, 1-[2-(3-fluoro-4-methoxyphenyl)-3-(3-methyl-1H-pyrrolo[2,3-b]pyridin-4-yl)-6,7-dihydropyrazolo[1,5-a]pyrazin-5(4H)-yl]prop-2-en-1-one]: the pIC50 in assay [1] was 6.26; in the assay on BA/F3 (insSVD) cells, 6.77; in assay [2], 6.11.
`C=CC(=O)N1CCn2nc(-c3ccc(OC)cc3)c(-c3ccnc4[nH]cc(C)c34)c2C1` [Example 47, 1-[2-(4-methoxyphenyl)-3-(3-methyl-1H-pyrrolo[2,3-b]pyridin-4-yl)-6,7-dihydropyrazolo[1,5-a]pyrazin-5(4H)-yl]prop-2-en-1-one]: the pIC50 was 6.18 in assay [1], 6.64 in the assay with BA/F3 (insSVD) cells and 6.06 in assay [2].
For `C=CC(=O)N1CCn2nc(-c3ccc(C(F)(F)F)cc3)c(-c3ccnc4[nH]cc(C)c34)c2C1` [Example 48, 1-[3-(3-methyl-1H-pyrrolo[2,3-b]pyridin-4-yl)-2-[4-(trifluoromethyl)phenyl]-6,7-dihydropyrazolo[1,5-a]pyrazin-5(4H)-yl]prop-2-en-1-one] the same measures were 5.90, 7.04 and 6.62.
On the same counts, the results for `C=CC(=O)N1CCn2nc(-c3ccc(Cl)cc3F)c(-c3ccnc4[nH]cc(C)c34)c2C1` [Example 49, 1-[2-(4-chloro-2-fluorophenyl)-3-(3-methyl-1H-pyrrolo[2,3-b]pyridin-4-yl)-6,7-dihydropyrazolo[1,5-a]pyrazin-5(4H)-yl]prop-2-en-1-one] are 6.92, 7.14 and 6.95.
